Measured values reported in patent US20110002855A1 (NEUROGEN CORPORATION, priority 2007, published 2011).

Biological target: T1, chimeric human H3 receptor (Homo sapiens, UniProt Q9Y5N1)
T1 construct: made in house; host or cells: Sf9 insect cells (baculovirus); P2 membrane preparation
Assay: Chimeric human H3 receptor GTP binding assay (Example 7)
Type: biochemical
Settings: agonist (1 μM histamine)-stimulated GTP-gamma35S binding, P2 membranes of Sf9 cells; Ki from IC50 by Cheng-Prusoff
Source text: This Example illustrates a representative assay for evaluating agonist-stimulated GTP-gamma^35S binding (“GTP binding”) activity. […] This agonist-stimulated GTP binding activity can also be used to detect partial agonism mediated by antagonist compounds. A compound analyzed in this assay is referred to herein as a “test compound.”
Four independent baculoviral stocks (one directing the expression of the chimeric human H3 receptor and three directing the expression of each of the three subunits of a heterotrimeric G-protein) are used to infect a culture of Sf9 cells as described above. P2 membranes are prepared as described above, and agonist-stimulated GTP binding on the P2 membranes is assessed using histamine (Sigma Chemical Co., St. Louis, Mo.) as agonist in order to ascertain that the receptor/G-protein-alpha-beta-gamma combination(s) yield a functional response as measured by GTP binding. P2 membranes are resuspended by Dounce homogenization (tight pestle) in GTP binding assay buffer (50 mM Tris pH 7.4, 120 mM NaCl, 5 mM MgCl2, 2 mM EGTA, 1 mg/ml BSA, 0.2 mg/ml bacitracin, 0.02 mg/ml aprotinin, 0.01 mg/ml saponin, 10 μM GDP) and added to assay tubes at a concentration of 35 μg protein/reaction tube. After adding increasing doses of histamine at concentrations ranging from 10^−12 M to 10^−5 M, reactions are initiated by the addition of 125 pM GTP-gamma^35S (PERKIN ELMER; Boston, Mass.) with a final assay volume of 0.20 ml. In competition experiments, non-radiolabeled test compounds are added to separate reactions at concentrations ranging from 10^−10 M to 10^−6M along with 1 μM histamine to yield a final volume of 0.20 ml.
Neutral antagonists are antagonists that are substantially free of inherent agonist activity, and include those test compounds that reduce the histamine-stimulated GTP binding activity towards, but not below, baseline levels. In contrast, in the absence of added histamine, inverse agonists reduce the GTP binding activity of the receptor-containing membranes below baseline.
After a 60-min incubation at room temperature, reactions are terminated by vacuum filtration over WHATMAN GF/C filters (pre-soaked in wash buffer, 0.1% BSA) followed by washing with ice-cold wash buffer (50 mM Tris pH 7.4, 120 mM NaCl). The amount of receptor-bound (and thereby membrane-bound) GTE-gamma^35S is determined by measuring the filter-bound radioactivity, preferably by liquid scintillation spectrometry of the washed filters. Non-specific binding is determined in parallel assays including 10 μM unlabeled GTP-gammaS and typically represents less than 5 percent of total binding. Data is expressed as percent above basal (baseline). The results of GTP binding experiments are analyzed using SIGMAPLOT software (SPSS Inc., Chicago, Ill.). IC50 values are calculated by non-linear regression analysis of dose-response curves using Kaleidograph (Synergy Software, Reading, Pa.).
Alternatively the data is analyzed as follows. First, the average bound radioactivity from negative control wells (no agonist) is subtracted from the bound radioactivity detected for each of the other experimental wells. Second, average bound radioactivity is calculated for the positive control wells (agonist wells). Then, percent inhibition for each compound tested is calculated using the equation:
Calculated IC50 values are converted to Ki values by the Cheng-Prusoff correction (Cheng and Prusoff (1973) Biochem. Pharmacol. 22(23):3099-3108). Accordingly, the following equation: Ki=IC50/(1+[L]/EC50) is used, where [L] is the histamine concentration in the GTP binding assay, and EC50 is the concentration of histamine producing a 50% response, as determined by a dose-response analysis using concentrations of histamine ranging from 10^−10 M to 10^−6M. […]

T1 sequence (Q9Y5N1 with tags, fused parts or gaps): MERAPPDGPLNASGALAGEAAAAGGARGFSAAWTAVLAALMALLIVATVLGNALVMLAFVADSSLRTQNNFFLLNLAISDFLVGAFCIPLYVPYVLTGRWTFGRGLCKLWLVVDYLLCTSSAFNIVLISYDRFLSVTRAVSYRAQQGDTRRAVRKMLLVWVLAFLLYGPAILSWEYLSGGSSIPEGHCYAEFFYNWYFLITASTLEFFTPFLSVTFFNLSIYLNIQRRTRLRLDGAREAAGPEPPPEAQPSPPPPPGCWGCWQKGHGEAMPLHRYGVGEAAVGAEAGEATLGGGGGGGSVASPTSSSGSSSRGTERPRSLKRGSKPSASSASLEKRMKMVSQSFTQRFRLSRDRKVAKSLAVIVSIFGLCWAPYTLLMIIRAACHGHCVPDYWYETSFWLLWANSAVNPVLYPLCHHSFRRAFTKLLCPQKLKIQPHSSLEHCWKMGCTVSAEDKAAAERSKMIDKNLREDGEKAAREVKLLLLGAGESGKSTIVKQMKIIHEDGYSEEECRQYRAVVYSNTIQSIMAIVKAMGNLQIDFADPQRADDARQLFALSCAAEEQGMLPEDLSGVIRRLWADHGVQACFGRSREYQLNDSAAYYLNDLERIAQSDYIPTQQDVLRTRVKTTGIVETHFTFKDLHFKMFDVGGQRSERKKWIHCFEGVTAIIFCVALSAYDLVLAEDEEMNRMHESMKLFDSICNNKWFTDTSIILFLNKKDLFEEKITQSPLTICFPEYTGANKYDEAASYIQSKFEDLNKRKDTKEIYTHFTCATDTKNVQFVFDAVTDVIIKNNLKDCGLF

Ki, < 1000 nM:
Cn1c2c(c3cc(F)ccc31)CCN(CC(=O)N1CCN(C3CCC3)CC1)C2 [Compound 23, 2-[2-(4-Cyclobutylpiperazin-1-yl)-2-oxoethyl]-6-fluoro-9-methyl-2,3,4,9-tetrahydro-1H-beta-carboline]
O=C(CN1CCc2c([nH]c3cc(F)ccc23)C1)N1CCN(C2CCC2)CC1 [Compound 24, 2-[2-(4-Cyclobutylpiperazin-1-yl)-2-oxoethyl]-7-fluoro-2,3,4,9-tetrahydro-1H-beta-carboline]
O=C(CN1CCc2c(n(CC(F)(F)F)c3ccccc23)C1)N1CCN(C2CCC2)CC1 [Compound 31, 2-[2-(4-Cyclobutylpiperazin-1-yl)-2-oxoethyl]-9-(2,2,2-trifluoroethyl)-2,3,4,9-tetrahydro-1H-beta-carboline]
O=C(CN1CCc2c([nH]c3ccc(F)cc23)C1)N1CCN(C2CCC2)CC1 [Compound 21, 2-[2-(4-Cyclobutylpiperazin-1-yl)-2-oxoethyl]-6-fluoro-2,3,4,9-tetrahydro-1H-beta-carboline]
O=C(CN1CCc2c([nH]c3cc(-c4cncnc4)ccc23)C1)N1CCN(C2CCC2)CC1 [Compound 27, 2-[2-(4-Cyclobutylpiperazin-1-yl)-2-oxoethyl]-7-pyrimidin-5-yl-2,3,4,9-tetrahydro-1H-beta-carboline]
O=C(CN1CCc2c([nH]c3ccc(Br)cc23)C1)N1CCN(C2CCC2)CC1 [Compound 22, 6-Bromo-2-[2-(4-cyclobutylpiperazin-1-yl)-2-oxoethyl]-2,3,4,9-tetrahydro-1H-beta-carboline]
CCCn1c2c(c3ccccc31)CCN(CC(=O)N1CCN(C3CCC3)CC1)C2 [Compound 29, 2-[2-(4-Cyclobutylpiperazin-1-yl)-2-oxoethyl]-9-propyl-2,3,4,9-tetrahydro-1H-beta-carboline]
Cc1ccc2[nH]c3c(c2c1)CCN(CC(=O)N1CCN(C2CCC2)CC1)C3 [Compound 20, 2-[2-(4-Cyclobutylpiperazin-1-yl)-2-oxoethyl]-6-methyl-2,3,4,9-tetrahydro-1H-beta-carboline]
O=C(CN1CCc2c([nH]c3cccc(F)c23)C1)N1CCN(C2CCC2)CC1 [Compound 26, 2-[2-(4-Cyclobutylpiperazin-1-yl)-2-oxoethyl]-5-fluoro-2,3,4,9-tetrahydro-1H-beta-carboline]
O=C(CN1CCc2c([nH]c3ccccc23)C1)N1CCN2CCCCC2C1 (stereo not drawn) [Compound 32, 2-[2-(Octahydro-2H-pyrido[1,2-a]pyrazin-2-yl)-2-oxoethyl]-2,3,4,9-tetrahydro-1H-beta-carboline]
CC1CCCC2CN(C(=O)CN3CCc4c([nH]c5ccccc45)C3)CCN12 (stereo not drawn) [Compound 33, 2-[2-(6-Methyloctahydro-2H-pyrido[1,2-a]pyrazin-2-yl)-2-oxoethyl]-2,3,4,9-tetrahydro-1571H-beta-carboline]
COc1ccc2c(c1)c1c(n2C)CN(CC(=O)N2CCN(C3CCC3)CC2)CC1 [Compound 19, 2-[2-(4-Cyclobutylpiperazin-1-yl)-2-oxoethyl]-6-methoxy-9-methyl-2,3,4,9-tetrahydro-1H-beta-carboline]
CC(C)n1c2c(c3ccccc31)CCN(CC(=O)N1CCN(C3CCC3)CC1)C2 [Compound 30, 2-[2-(4-Cyclobutylpiperazin-1-yl)-2-oxoethyl]-9-isopropyl-2,3,4,9-tetrahydro-1H-beta-carboline]
COc1ccc2[nH]c3c(c2c1)CCN(CC(=O)N1CCN(C2CCC2)CC1)C3 [Compound 18, 2-[2-(4-Cyclobutylpiperazin-1-yl)-2-oxoethyl]-6-methoxy-2,3,4,9-tetrahydro-1H-beta-carboline]
CCn1c2c(c3ccccc31)CCN(CC(=O)N1CCN(C3CCC3)CC1)C2 [Compound 28, 2-[2-(4-Cyclobutylpiperazin-1-yl)-2-oxoethyl]-9-ethyl-2,3,4,9-tetrahydro-1H-beta-carboline]
O=C(CN1CCc2c([nH]c3c(F)cccc23)C1)N1CCN(C2CCC2)CC1 [Compound 25, 2-[2-(4-Cyclobutylpiperazin-1-yl)-2-oxoethyl]-8-fluoro-2,3,4,9-tetrahydro-1H-beta-carboline]
